Assay results taken from ChEMBL document CHEMBL1142399, “Water-soluble pleuromutilin derivative with excellent in vitro and in vivo antibacterial activity against gram-positive pathogens” (J Med Chem, 2008).
Values after ≈ are worked out from the molar mass of the structure shown.

Legend:
[1] = system: Mycoplasmoides pneumoniae; assay: Antibacterial activity against Mycoplasma pneumoniae FH Liu by broth microdilution method; type: functional
[2] = system: Staphylococcus aureus; assay: microbe, parasite or virus in culture
[3] = system: Clostridium perfringens; assay: Antibacterial activity against Clostridium perfringens GAI 5526 by broth microdilution method; type: functional
[4] = system: Staphylococcus aureus; assay: Antibacterial activity against methicillin-susceptible Staphylococcus aureus Smith in po dosed mouse twice daily; type: functional
[5] = system: Staphylococcus aureus; assay: microbe, parasite or virus in culture; remark: listed apart in the source
[6] = system: Enterococcus faecalis; assay: microbe, parasite or virus in culture; settings: ATCC 29212
[7] = system: Atopobium parvulum; assay: Antibacterial activity against Atopobium parvulum GAI 5542 by broth microdilution method; type: functional; settings: Lancefieldella parvula
[8] = system: Enterococcus faecium; assay: microbe, parasite or virus in culture; settings: ATCC 19434
[9] = system: Cutibacterium acnes; assay: Antibacterial activity against Propionibacterium acnes GAI 5568 by broth microdilution method; type: functional
[10] = Solubility in water; type: physicochemical
[11] = system: Enterococcus faecium; assay: Antibacterial activity against vancomycin-resistant Enterococcus faecium KU1778 clinical isolate by broth microdilution method; type: functional
[12] = system: Peptoniphilus asaccharolyticus; assay: Antibacterial activity against Peptostreptococcus asaccharolyticus GAI 5534 by broth microdilution method; type: functional
[13] = system: Streptococcus pyogenes; assay: Antibacterial activity against Streptococcus pyogenes ATCC 12344 by broth microdilution method; type: functional
[14] = system: Streptococcus pneumoniae; assay: Antibacterial activity against penicillin-susceptible Streptococcus pneumoniae ATCC 49619 in mouse dosed iv 1 hr after infection; type: functional; settings: ATCC 49619, iv
[15] = system: Streptococcus pneumoniae; assay: Antibacterial activity against penicillin-resistant Streptococcus pneumoniae KT2524 in mouse dosed twice iv 1 hr and 4 hrs after infection; type: functional
[16] = system: Staphylococcus aureus; assay: microbe, parasite or virus in culture; settings: Smith
[17] = system: Staphylococcus aureus; assay: Antibacterial activity against methicillin-susceptible Staphylococcus aureus Smith in mouse dosed twice iv 1 hr and 4 hrs after infection; type: functional
[18] = system: Staphylococcus saccharolyticus; assay: Antibacterial activity against Staphylococcus saccharolyticus GAI 5520 by broth microdilution method; type: functional
[19] = system: Streptococcus intermedius; assay: Antibacterial activity against Streptococcus intermedius GAI 7416 by broth microdilution method; type: functional
[20] = system: Streptococcus pneumoniae; assay: Antibacterial activity against penicillin-resistant Streptococcus pneumoniae KT2524 in mouse dosed iv 1 hr after infection; type: functional
[21] = system: Streptococcus pneumoniae; assay: Antibacterial activity against penicillin-susceptible Streptococcus pneumoniae ATCC 6303 in mouse pulmonary infection model assessed as survival at 6.25 mg/kg, ip twice daily for 3 days; type: functional; settings: route intraperitoneal
[22] = system: Staphylococcus epidermidis; assay: Antibacterial activity against Staphylococcus epidermidis ATCC 12228 by broth microdilution method; type: functional
[23] = system: Staphylococcus aureus; assay: microbe, parasite or virus in culture; settings: KMP9
[24] = system: Haemophilus influenzae; assay: Antibacterial activity against Haemophilus influenzae TH13 by broth microdilution method; type: functional
[25] = system: Staphylococcus aureus; assay: Antibacterial activity against methicillin-resistant Staphylococcus aureus KT0116 in mouse dosed twice iv 1 hr and 4 hrs after infection; type: functional
[26] = system: Streptococcus pneumoniae; assay: Antibacterial activity against penicillin-susceptible Streptococcus pneumoniae ATCC 49619 in mouse dosed twice iv 1 hr and 4 hrs after infection; type: functional; settings: ATCC 49619, iv
[27] = system: Mycoplasmoides pneumoniae; assay: Antibacterial activity against Mycoplasma pneumoniae Mac by broth microdilution method; type: functional
[28] = system: Propionibacterium granulosum; assay: Antibacterial activity against Propionibacterium granulosum GAI 7414 by broth microdilution method; type: functional; settings: Cutibacterium granulosum
[29] = system: Streptococcus pneumoniae; assay: microbe, parasite or virus in culture; settings: ATCC 49619
[30] = system: Finegoldia magna; assay: Antibacterial activity against Peptostreptococcus magnus GAI 5528 by broth microdilution method; type: functional
[31] = system: Staphylococcus aureus; assay: Antibacterial activity against methicillin-susceptible Staphylococcus aureus Smith in mouse dosed iv 1 hr after infection; type: functional
[32] = system: Streptococcus pneumoniae; assay: microbe, parasite or virus in culture
[33] = system: Peptostreptococcus anaerobius; assay: Antibacterial activity against Peptostreptococcus anaerobius GAI 5506 by broth microdilution method; type: functional
[34] = system: Moraxella catarrhalis; assay: Antibacterial activity against Moraxella catarrhalis K1209 by broth microdilution method; type: functional
[35] = system: Staphylococcus aureus; assay: Antibacterial activity against methicillin-resistant Staphylococcus aureus KT0116 in mouse dosed iv 1 hr after infection; type: functional

Row | SMILES | MIC [2] [µg/mL] | MIC [3] [µg/mL] | ED50 [4] [mg/kg] | MIC [5] [µg/mL] | MIC [6] [µg/mL] | MIC [7] [µg/mL] | MIC [8] [µg/mL] | MIC [9] [µg/mL] | MIC [11] [µg/mL] | MIC [12] [µg/mL] | MIC [13] [µg/mL] | ED50 [14] [mg/kg] | ED50 [15] [mg/kg] | MIC [16] [µg/mL] | MIC [22] [µg/mL] | MIC [23] [µg/mL] | MIC [24] [µg/mL] | MIC [29] [µg/mL] | MIC [32] [µg/mL] | MIC [34] [µg/mL] | further results
1 | C=C[C@]1(C)C[C@@H](OC(=O)CSC2CCN(C(=O)CCn3cnc4c(N5CCNCC5)nc(N)nc43)CC2)[C@@]2(C)C3C(=O)CC[C@@]3(CC[C@H]2C)[C@@H](C)[C@@H]1O (some centres undefined) | 0.5 (≈ 0.666 µM) | 0.063 (≈ 0.0839 µM) | > 50 | 0.063 (≈ 0.0839 µM) | 64 (≈ 85.2 µM) | 0.25 (≈ 0.333 µM) | 0.063 (≈ 0.0839 µM) | 0.008 (≈ 0.0107 µM) | 0.063 (≈ 0.0839 µM) | 0.032 (≈ 0.0426 µM) | 0.032 (≈ 0.0426 µM) | 1.54 | 1.88 | 0.25 (≈ 0.333 µM) | 0.063 (≈ 0.0839 µM) | 0.5 (≈ 0.666 µM) | 0.125 (≈ 0.166 µM) | 0.063 (≈ 0.0839 µM) | 0.063 (≈ 0.0839 µM) | 0.032 (≈ 0.0426 µM) | MIC [1]: 0.008 µg/mL (≈ 0.0107 µM); solubility [10]: 50 mg/mL (≈ 66600 µM); ED50 [17]: 1.51 mg/kg; MIC [18]: 0.06 µg/mL (≈ 0.0799 µM); MIC [19]: 0.25 µg/mL (≈ 0.333 µM); ED50 [20]: 1.55 mg/kg; Activity [21]: 50%; ED50 [25]: 0.91 mg/kg; ED50 [26]: 1.34 mg/kg; MIC [27]: 0.008 µg/mL (≈ 0.0107 µM); MIC [28]: 0.016 µg/mL (≈ 0.0213 µM); MIC [30]: 0.063 µg/mL (≈ 0.0839 µM); ED50 [31]: 1.86 mg/kg; MIC [33]: 0.032 µg/mL (≈ 0.0426 µM); ED50 [35]: 2.15 mg/kg
2 | CC1(C)S[C@@H]2[C@H](NC(=O)[C@H](N)c3ccccc3)C(=O)N2[C@H]1C(=O)O [AMPICILLIN] | – | 0.063 (≈ 0.18 µM) | – | – | – | 0.125 (≈ 0.358 µM) | – | 0.125 (≈ 0.358 µM) | – | 0.25 (≈ 0.715 µM) | – | – | – | – | – | – | – | – | – | – | MIC [18]: 0.008 µg/mL (≈ 0.0229 µM); MIC [19]: 0.125 µg/mL (≈ 0.358 µM); MIC [28]: 0.063 µg/mL (≈ 0.18 µM); MIC [30]: 0.25 µg/mL (≈ 0.715 µM); MIC [33]: 0.125 µg/mL (≈ 0.358 µM)
3 | CC[C@]1(C)C[C@@H](OC(=O)CSc2nnc(N)[nH]2)[C@]2(C)[C@H](C)CC[C@]3(CCC(=O)[C@H]32)[C@@H](C)[C@@H]1O [AZAMULIN] | 1 (≈ 2.09 µM) | – | 13.3 | 0.25 (≈ 0.522 µM) | 128 (≈ 267 µM) | – | 0.5 (≈ 1.04 µM) | – | 0.25 (≈ 0.522 µM) | – | 0.25 (≈ 0.522 µM) | – | 17.7 | 0.5 (≈ 1.04 µM) | 0.25 (≈ 0.522 µM) | 2 (≈ 4.18 µM) | 0.5 (≈ 1.04 µM) | 0.5 (≈ 1.04 µM) | 0.5 (≈ 1.04 µM) | 0.032 (≈ 0.0669 µM) | ED50 [17]: 6.88 mg/kg; ED50 [25]: 5.2 mg/kg; ED50 [26]: 12.9 mg/kg
4 | CO/N=C(\C(=O)N[C@@H]1C(=O)N2C(C(=O)O)=C(CSc3nc(=O)c(O)nn3C)CS[C@H]12)c1csc(N)n1 [CEFTRIAXONE] | > 128 | – | – | 2 (≈ 3.61 µM) | 4 (≈ 7.21 µM) | – | 4 (≈ 7.21 µM) | – | > 128 | – | 0.016 (≈ 0.0289 µM) | 0.22 | – | 2 (≈ 3.61 µM) | 2 (≈ 3.61 µM) | > 128 | 0.008 (≈ 0.0144 µM) | 0.063 (≈ 0.114 µM) | 0.5 (≈ 0.902 µM) | 0.25 (≈ 0.451 µM) | ED50 [20]: 27.5 mg/kg; ED50 [31]: 3.72 mg/kg; ED50 [35]: > 100 mg/kg
